biological target: T1, human PARS enzyme (Homo sapiens, UniProt P09874); assay: PARS inhibition test (in vitro); format: biochemical; conditions: recombinant human PARS, [14C]-NAD+, 10 min room temperature
T1 construct: made in house; host or cells: baculovirus expression system (Bac-To-Bac, Life Technologies)
Description: To this end, recombinantly expressed (Bac-To-Bac, Baculo virus expression system; Instruction Manual; Life Technologies) human PARS enzyme is activated in a buffer which contains radioactively labelled [^14C]—NAD^+. The poly(ADP-ribose) units that are synthesized are precipitated using trichloroacetic acid, and the proportion of labelled protein is determined by scintillation measurements. Incubation of PARS with inhibitors leads to a decrease in the proportion of labelled protein and thus to a reduced radioactivity.
• Buffer: 100 mM 2-amino-2-hydroxymethyl-1,3-propanediol (tris)-HCl, pH 7.4 • 10 mM MgCl2 • 1 mM dithiothreitol (DTT) • Tris-HCl and MgCl2 are dissolved in water, DTT is added from an aqueous 100 mM stock solution (stored at −20° C.) and the pH is adjusted with concentrated HCl to 7.4. • DNA: 1 mg/ml of calf thymus DNA • 1 mg/ml of calf thymus DNA (from Sigma) is dissolved in water and sonicated to induce strand breaks. 500 μl aliquots were stored at −20° C. • Histones: 10 mg/ml of type IIA histones, calf thymus • 10 mg/ml of lyophilized histones (from Sigma) are dissolved in water. • 500 μl aliquots are stored at −20° C. • NAD^+ Mix: 2 mM NAD^+ in buffer, • NAD^+ (from Sigma) solutions are prepared freshly before each test. • In each case 3 μl of labelled [^14C]—NAD^+ (2.8 kBq, from Amersham) are added to 7 μl of cold NAD^+ solution. • Trichloroacetic acid (TCA): TCA is stored at 4° C. as a 10% strength by weight solution. • PARS: Human PARS protein is expressed recombinantly in the baculovirus system (Bac-To-Bac, Baculo virus expression system; Instruction Manual; Life Technologies) and purified. 500 μl aliquots are stored at −80° C. Methods
The compounds to be tested are dissolved in DMSO (dimethyl sulphoxide) at a concentration of 10 mM. The assay is carried out in deep 96-well plates. […] The mixture is incubated at room temperature for 10 min, and 1 ml of ice-cold TCA solution is then added, and the precipitated labelled proteins are sucked onto a filter paper (printed filter mat A; from Wallac) using a harvester (from Scatron). The filter is dried, sealed together with a scintillation sheet (Multilex A; from Wallac) and measured in a β counter for 1 min per well.
In addition to the substances described in this application, the known PARS inhibitor 1,5-dihydroxyisoquinoline (DHCH) is tested as reference substance. The results of the test are stated as IC50 values for the inhibition of PARS.

T1 sequence (P09874 whole entry): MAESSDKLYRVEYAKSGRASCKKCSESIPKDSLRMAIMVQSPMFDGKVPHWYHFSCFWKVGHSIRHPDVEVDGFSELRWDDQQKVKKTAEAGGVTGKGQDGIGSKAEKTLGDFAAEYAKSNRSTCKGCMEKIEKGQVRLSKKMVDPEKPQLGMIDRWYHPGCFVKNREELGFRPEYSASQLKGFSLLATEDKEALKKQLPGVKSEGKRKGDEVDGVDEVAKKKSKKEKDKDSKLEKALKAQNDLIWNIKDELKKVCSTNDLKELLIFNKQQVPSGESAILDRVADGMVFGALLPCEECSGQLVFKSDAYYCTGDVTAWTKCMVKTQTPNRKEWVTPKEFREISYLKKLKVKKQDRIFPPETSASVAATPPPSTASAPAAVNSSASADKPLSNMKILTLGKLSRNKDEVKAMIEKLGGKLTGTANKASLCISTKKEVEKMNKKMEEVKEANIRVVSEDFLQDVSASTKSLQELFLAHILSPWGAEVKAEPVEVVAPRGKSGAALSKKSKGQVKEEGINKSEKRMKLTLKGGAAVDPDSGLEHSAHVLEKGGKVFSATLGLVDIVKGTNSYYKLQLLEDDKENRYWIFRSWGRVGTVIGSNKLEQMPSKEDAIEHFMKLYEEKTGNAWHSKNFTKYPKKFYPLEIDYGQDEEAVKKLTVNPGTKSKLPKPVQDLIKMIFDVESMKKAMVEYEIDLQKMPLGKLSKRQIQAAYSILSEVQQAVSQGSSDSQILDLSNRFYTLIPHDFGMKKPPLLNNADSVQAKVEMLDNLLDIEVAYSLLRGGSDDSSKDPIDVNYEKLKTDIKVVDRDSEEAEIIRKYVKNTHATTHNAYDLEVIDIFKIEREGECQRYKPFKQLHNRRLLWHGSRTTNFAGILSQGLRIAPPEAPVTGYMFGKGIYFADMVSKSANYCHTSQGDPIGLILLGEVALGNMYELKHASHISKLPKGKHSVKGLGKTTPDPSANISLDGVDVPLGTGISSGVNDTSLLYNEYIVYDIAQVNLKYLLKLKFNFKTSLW

Compound | IC50 [nM]
Cc1csc2c(N3CCN(C(=O)CNC(=O)CCn4c5c(c(=O)[nH]c4=O)CSCC5)CC3)ncnc12 [Example 15] | 15
O=C(CCn1c2c(c(=O)[nH]c1=O)CCCC2)NCC(=O)N1CCN(c2ccccc2C(F)(F)F)CC1 [Example 54] | 80
O=C(CCn1c2c(c(=O)[nH]c1=O)CSCC2)NCC(=O)c1ccc2ccccc2c1 [Example 6] | 8.5
O=C(CCn1c2c(c(=O)[nH]c1=O)CCCC2)NCC(=O)c1ccc(-c2ccncc2)cc1 [Example 7] | 12

tested on: MHEC5-T cells; assay: Cell protection assay (in vitro), H2O2-induced cell death, Alamar blue; format: cell-based; conditions: 3 mM H2O2, 5 hours, 37° C., 50% of maximum cell protection, 10 μM DHCH defined as 100%, read-out: Cell protection (in vitro) EC50
Description: In accordance with a method described by Bowes [Bowes et al., Br. J. Pharmacol., 124, 1760–1766 (1998)], the ability of PARS inhibitors to protect cells against cell death induced by incubation with H2O2 is examined in a cell protection assay. Incubation of endothelial cells with H2O2 results in the generation of DNA strand breaks which in turn activate PARS, resulting in a drastic energy decrease in the cells and in cell death. Living cells are quantified by a fluorimetric redox indicator (Alamar blue), which is converted in the electron transport system of the mitochondria.
Specifically, 7500 MHEC5-T cells/well (DSM ACC 336; German collection of microorganisms and cell cultures) are sown in 4 replications on a 96-well plate. After 24 hours, the cells are incubated with 3 mM aqueous H2O2 solution and differing concentrations of the substances in the presence of 6% by volume of Alamar blue solution in the medium at 37° C. for 5 hours. The reference substance used is 10 μM 1,5-dihydroxyisoquinoline (DHCH) solution. After the incubation, the fluorescence is measured at an excitation wavelength of 530–560 nm and an emission wavelength of 590 nm. The percentage for the cell protection is calculated as the difference between the living cells treated only with H2O2 and the cells treated with H2O2 and PARS inhibitors. The internal standard used is 10 μM DHCH, which is defined as 100% protection. The results obtained for the other substances are compared to this value.
The EC50 values indicate the concentration at which 50% of maximum cell protection is reached, maximum protection by 10 μM DHCH being defined as 100%.

Compound | EC50 [nM]
O=C(CCn1c2c(c(=O)[nH]c1=O)CSCC2)NCC(=O)N1CCN(c2ncc(Br)cn2)CC1 [Example 24] | 20
O=C(CCn1c2c(c(=O)[nH]c1=O)CSCC2)NCC(=O)c1ccc(-c2cnccn2)cc1 [Example 5, 3-(2,4-Dioxo-3,4,7,8-tetrahydro-2H-thiopyrano [4,3-d]pyrimidin-1(5H)-yl)-N-(2-oxo-2-[4-(2-pyrazinyl)phenyl]ethyl)propanecarboxamide] | 70
Cc1csc2c(N3CCN(C(=O)CNC(=O)CCn4c5c(c(=O)[nH]c4=O)CSCC5)CC3)ncnc12 [Example 15] | 50
O=C(CCn1c2c(c(=O)[nH]c1=O)CCCC2)NCC(=O)N1CCN(c2ncc(F)cn2)CC1 [Example 40] | 90
O=C(CCn1c2c(c(=O)[nH]c1=O)CSCC2)NCC(=O)N1CCN(c2ccccc2)CC1 [Example 30] | 100
O=C(CCn1c2c(c(=O)[nH]c1=O)CCCC2)NCC(=O)N1CCN(c2ccc([N+](=O)[O-])cc2)CC1 [Example 32] | 200
O=C(CCn1c2c(c(=O)[nH]c1=O)CCCC2)NCC(=O)c1ccc(-c2ccncc2)cc1 [Example 7] | 90
O=C(CCn1c2c(c(=O)[nH]c1=O)CSCC2)NCC(=O)c1ccc(-c2ccc3c(c2)OCO3)cc1 [Example 12] | 95

same assay, conditions: 3 mM H2O2, 5 hours, reference substance, read-out: Cell protection EC50 value

Compound | EC50 [nM]
Oc1cccc2c(O)nccc12 [DHCH, 1,5-dihydroxyisoquinoline, reference compound] | 2000
